One series deals with uninfected HA-sp. Particulars: tested at 1-100 μM, data not shown. The procedure:
(§1) Cell Culture and Infection: Primary human spinal astrocytes (HA-sp; Sciencell, Carlsbad, Calif.) were seeded at 5,000 cells/cm' in a basal astrocyte medium containing 2% fetal bovine serum (FBS), 1% astrocyte growth supplement, and 1% 100× penicillin-streptomycin (Sciencell). After 24 hours, medium was changed to basal astrocyte medium containing 0.1% FBS and 1% 100× penicillin-streptomycin that was replenished every 72 hours for 7 days to establish quiescence. On day 7, spinal astrocytes were co-cultivated with VZV-infected spinal astrocytes (40 pfu/mL) or mock-infected spinal astrocytes. […] Light microscopy images to observe a cytopathic effect were obtained at 12, 24, 48 and 72 HPI followed by DNA extraction and PCR quantification of VZV DNA as described below. Substance P ELISA: Substance P was quantitated from mock- and VZV-infected HA-sp using a colorimetric competitive enzyme immunoassay kit according to the manufacturer's instructions (Enzo, Farmingdale, N.Y.). The sensitivity range was 9.76-10,000 pg/mL, as determined by controls run on the same assay as samples. Immunofluorescence Assay: HA-sp were propagated and treated as described above in an ibidi 24-well μ-Plate (ibidi, Martinsried, Germany). […] GFAP and NK-1R were detected using a 1:500 dilution of chicken anti-GFAP (Abcam) and a 1:100 dilution of rabbit anti-NK-1R (Novus Biologicals LLC, Littleton, Colo.), respectively. […]

For series [1], the system named is VZV-infected primary human spinal astrocytes (HA-sp). In words: Immunocytochemistry of cellular processes and NK-1R localization in VZV-infected HA-sp. It counts as cell-based. The conditions noted are these: 3 DPI; 10 μM aprepitant; versus vehicle. The procedure: as §1
The next series concerns VZV. Briefly: Total VZV DNA in adult primary human perineurial cells (HPNCs). Particulars: 72 HPI. The format is cell-based, varicella zoster virus. An excerpt:
At 12, 24, 48, and 72 HPI, cells were visualized by light microscopy in the untreated and treated cultures and harvested for DNA.

Series [2] deals with quiescent uninfected spinal astrocytes. Briefly: Substance P treatment of uninfected spinal astrocytes: NK-1R distribution by immunofluorescence and process formation by CellTracker Deep Red. Particulars: 10^−6 M substance P for 60 minutes. The format is cell-based, human. The procedure: as §1

We go through 3 molecules from patent publication US20210030761A1, “TREATMENT AND PREVENTION OF ALPHA HERPES VIRUS INFECTION” (THE REGENTS OF THE UNIVERSITY OF COLORADO, a body corporate, priority 2018, published 2021).

Consider `C[C@@H](O[C@H]1OCCN(Cc2n[nH]c(=O)[nH]2)[C@H]1c1ccc(F)cc1)c1cc(C(F)(F)F)cc(C(F)(F)F)c1` [aprepitant], for which the “optimal concentration to avoid cell death” value with uninfected HA-sp is 10 µM. Besides, the “lamellipodia formation in VZV-infected cells” value in series [1] is recorded as “reduction in lamellipodia formation”.
For the molecule `C[C@@H](OC[C@@]1(c2ccccc2)CC[C@]2(CCC(=O)N2)CN1)c1cc(C(F)(F)F)cc(C(F)(F)F)c1` [rolapitant], the “total VZV DNA” value with VZV (treated at 24 HPI) and in the series on VZV (treated at time of infection) was “significantly reduced total VZV DNA” each time.
Regarding substance P, the NK-1R localization result in series [2] is “detected predominantly in cytoplasm”. Further, the lamellipodia formation entry in series [2] (CellTracker Deep Red) is “lack of lamellipodia”.
